This note sets out measurements from patent US20250074943A1, “DLL3 BINDING PEPTIDES AND USES THEREOF” (AMGEN INC., priority 2021, published 2025).

The target in one assay is T1, DLL3 (Homo sapiens, UniProt Q9NYJ7).
T1 construct: The recombinant DLL3 ectodomain (rhDLL3-Fc) was biotinylated; Fc
T1 sequence (Q9NYJ7 27-492 limits assumed): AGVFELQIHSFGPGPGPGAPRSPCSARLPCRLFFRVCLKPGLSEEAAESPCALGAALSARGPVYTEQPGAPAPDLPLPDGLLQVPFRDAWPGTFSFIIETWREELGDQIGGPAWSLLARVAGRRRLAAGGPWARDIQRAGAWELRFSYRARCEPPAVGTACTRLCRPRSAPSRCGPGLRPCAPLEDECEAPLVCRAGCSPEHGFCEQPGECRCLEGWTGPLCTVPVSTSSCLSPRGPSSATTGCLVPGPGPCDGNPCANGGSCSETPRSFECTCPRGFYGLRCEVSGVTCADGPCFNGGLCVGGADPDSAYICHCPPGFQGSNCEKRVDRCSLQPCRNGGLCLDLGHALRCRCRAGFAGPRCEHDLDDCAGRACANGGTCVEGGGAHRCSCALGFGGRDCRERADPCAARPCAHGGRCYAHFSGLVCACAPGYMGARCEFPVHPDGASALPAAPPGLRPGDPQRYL
As to the kind of experiment: Binding of peptides with linkers and/or fluorescent agent to DLL3 (BLI, SPR; Table 6). The protocol: Binding kinetic assays were performed using Bio-layer interferometry (BLI) technology. The recombinant DLL3 ectodomain (rhDLL3-Fc) was biotinylated using EZ-Link Sulfo-NHS-LC-LC-Biotin Kit according to the manufacturer's protocol (Pierce by Thermo Fisher Scientific). The recombinant protein was incubated with an excess of NHS-LC-LC Biotin ester, in a molar ratio of 1:3 (protein: biotin), at 25° C. for 90 min. The un-reacted biotin ester was removed by subsequent buffer exchange on 0.5 ml Zeba spin desalting columns 7K MWCO (Pierce by Thermo Fisher Scientific).
The off-rate screening of the peptides was done using a Biacore T200 instrument (Cytiva, Sweden). […] Peptides were diluted at 300 nM in PBS-P+1× buffer (Cytiva, Sweden) supplemented with 1% DMSO and 0.1% BSA, then injected over the ligand for five minutes at 30 μl/min, finally dissociation allowed for 1 h. Sensorgrams were analyzed by Biacore T200 Evaluation Software 3.0 (Cytiva, Sweden): specific binding was obtained by subtracting unspecific binding to naked biosensors and a zero analyte concentration made of binding assay buffer (double referencing). Kinetic parameters of koff were measured using a global fitting according to 1:1 Langmuir binding isotherm equation.

Assay [1] concerns the target T2, cell-surface hDLL3 (CHO cells) (Homo sapiens, UniProt Q9NYJ7).
T2 construct: expressed in transfected cells; host or cells: CHO (CHO-huDLL3)
T2 sequence (Q9NYJ7 27-618): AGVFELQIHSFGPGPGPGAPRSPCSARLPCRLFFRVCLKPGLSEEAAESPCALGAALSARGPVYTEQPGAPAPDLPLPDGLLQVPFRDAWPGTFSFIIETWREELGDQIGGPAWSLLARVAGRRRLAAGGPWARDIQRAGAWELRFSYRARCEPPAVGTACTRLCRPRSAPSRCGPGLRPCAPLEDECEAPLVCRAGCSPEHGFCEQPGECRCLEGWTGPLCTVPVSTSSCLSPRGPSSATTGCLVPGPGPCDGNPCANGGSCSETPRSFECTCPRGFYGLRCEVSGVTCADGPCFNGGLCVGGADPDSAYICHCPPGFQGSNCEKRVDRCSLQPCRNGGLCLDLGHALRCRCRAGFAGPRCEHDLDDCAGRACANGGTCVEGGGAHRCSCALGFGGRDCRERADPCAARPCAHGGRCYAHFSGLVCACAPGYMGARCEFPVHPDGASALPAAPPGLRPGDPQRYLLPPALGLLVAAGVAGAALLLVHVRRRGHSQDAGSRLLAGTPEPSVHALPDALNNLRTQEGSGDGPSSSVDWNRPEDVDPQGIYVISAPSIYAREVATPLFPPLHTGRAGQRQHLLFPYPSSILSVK
Description: Flow cytometry binding of fluorescence labelled peptides. Type of assay: cell-based. Conditions: 100 nM AF647-labelled peptide; FIG. 1. In general terms: A flow cytometer gives signals particle by particle.
Description: HEK293-huDLL3, CHO-huDLL3 and the corresponding parental cell lines were detached with EDTA 2.5 mM and re-suspended at 1.8×10^6 cells/ml in FACS buffer (1×PBS, 2% FBS), distributed at 500 μl per testing tube and pelleted 5 min at 1300 rpm in a Heraeus Multifuge X3R centrifuge. […] After 1 hour incubation at room temperature, cells were washed once with FACS buffer, centrifuged and re-suspended in FACS buffer/1% formaldehyde. Samples were acquired on a FACS ARIA flow cytometer (Becton Dickinson) and data analysed by FACS Express software.

As for `CC(C)[C@H](NC(=O)[C@@H](NC(=O)[C@H](CCC(=O)O)NC(=O)[C@H](C)N)[C@@H](C)O)C(=O)N[C@@H](CCC(=O)O)C(=O)N[C@@H](Cc1ccccc1)C(=O)N[C@@H](Cc1c[nH]c2ccccc12)C(=O)NCC(=O)N[C@H]1CSSC[C@@H](C(=O)N[C@@H](Cc2c[nH]c3ccccc23)C(=O)N[C@@H](Cc2c[nH]c3ccccc23)C(=O)NCCCOCCOCCOCCCNC(=O)CCC(=O)N[C@@H](CCCCn2nnc3c2-c2ccccc2CN(C(=O)CCNC(=O)CCCCC[N+]2=C(/C=C/C=C/C=C4/N(CCCS(=O)(=O)O)c5ccc(S(=O)(=O)O)cc5C4(C)C)C(C)(CCCS(=O)(=O)O)c4cc(S(=O)(=O)[O-])ccc42)c2ccccc2-3)C(N)=O)NC(=O)[C@H]([C@@H](C)O)NC(=O)[C@H](CCC(=O)O)NC(=O)[C@H](CC(N)=O)NC(=O)CNC(=O)[C@H](Cc2c[nH]c3ccccc23)NC(=O)[C@H]([C@@H](C)O)NC(=O)CNC(=O)[C@H]([C@@H](C)O)NC1=O` (some centres unmarked) [PepSP1215], the equilibrium dissociation constant (Kd) on DLL3 is 11.6 nM. Further, in assay [1], the “binding to cells expressing hDLL3” value is reported as “binding”.

A word on the Kd: it is the constant that tells how readily two partners part at equilibrium. A high value points to a looser complex.
